Molecular target: CRBN-DDB1 (Homo sapiens (Human), UniProt Q96SW2)
Experiment: CRBN-DDB1 fluorescence polarization (FP) binding assay
Details: Table 2 Degrons; displacement of Thalidomide-Alexa Fluor or Pomalidomide-fluorescein probe
Experimental: Measuring compound ligand binding to CRBN-DDB1 was carried out using an established sensitive and quantitative in vitro fluorescence polarization (FP) based binding assay. […] Compounds were dispensed from serially diluted DMSO stock into black 384-well compatible fluorescence polarization plates using an Echo acoustic dispenser. […] Matching control wells excluding CRBN-DDB1 were used to correct for background fluorescence. Plates were read on an Envision plate reader with appropriate FP filter sets.

Chain of CRBN-DDB1 (Q96SW2 whole entry, looked up): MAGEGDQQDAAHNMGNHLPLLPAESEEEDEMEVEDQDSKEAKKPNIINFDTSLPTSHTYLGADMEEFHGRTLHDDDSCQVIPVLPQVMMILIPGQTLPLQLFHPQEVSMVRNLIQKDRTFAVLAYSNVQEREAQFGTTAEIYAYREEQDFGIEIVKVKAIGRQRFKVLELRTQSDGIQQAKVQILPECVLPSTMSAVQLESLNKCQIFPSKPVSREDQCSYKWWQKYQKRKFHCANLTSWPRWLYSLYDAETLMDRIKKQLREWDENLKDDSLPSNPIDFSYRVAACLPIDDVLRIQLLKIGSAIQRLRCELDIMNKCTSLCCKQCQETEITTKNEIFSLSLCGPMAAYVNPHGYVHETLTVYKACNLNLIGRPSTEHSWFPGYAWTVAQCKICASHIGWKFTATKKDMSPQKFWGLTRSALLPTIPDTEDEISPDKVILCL
Chain of CRBN-DDB1 (Q16531 whole entry partner, looked up): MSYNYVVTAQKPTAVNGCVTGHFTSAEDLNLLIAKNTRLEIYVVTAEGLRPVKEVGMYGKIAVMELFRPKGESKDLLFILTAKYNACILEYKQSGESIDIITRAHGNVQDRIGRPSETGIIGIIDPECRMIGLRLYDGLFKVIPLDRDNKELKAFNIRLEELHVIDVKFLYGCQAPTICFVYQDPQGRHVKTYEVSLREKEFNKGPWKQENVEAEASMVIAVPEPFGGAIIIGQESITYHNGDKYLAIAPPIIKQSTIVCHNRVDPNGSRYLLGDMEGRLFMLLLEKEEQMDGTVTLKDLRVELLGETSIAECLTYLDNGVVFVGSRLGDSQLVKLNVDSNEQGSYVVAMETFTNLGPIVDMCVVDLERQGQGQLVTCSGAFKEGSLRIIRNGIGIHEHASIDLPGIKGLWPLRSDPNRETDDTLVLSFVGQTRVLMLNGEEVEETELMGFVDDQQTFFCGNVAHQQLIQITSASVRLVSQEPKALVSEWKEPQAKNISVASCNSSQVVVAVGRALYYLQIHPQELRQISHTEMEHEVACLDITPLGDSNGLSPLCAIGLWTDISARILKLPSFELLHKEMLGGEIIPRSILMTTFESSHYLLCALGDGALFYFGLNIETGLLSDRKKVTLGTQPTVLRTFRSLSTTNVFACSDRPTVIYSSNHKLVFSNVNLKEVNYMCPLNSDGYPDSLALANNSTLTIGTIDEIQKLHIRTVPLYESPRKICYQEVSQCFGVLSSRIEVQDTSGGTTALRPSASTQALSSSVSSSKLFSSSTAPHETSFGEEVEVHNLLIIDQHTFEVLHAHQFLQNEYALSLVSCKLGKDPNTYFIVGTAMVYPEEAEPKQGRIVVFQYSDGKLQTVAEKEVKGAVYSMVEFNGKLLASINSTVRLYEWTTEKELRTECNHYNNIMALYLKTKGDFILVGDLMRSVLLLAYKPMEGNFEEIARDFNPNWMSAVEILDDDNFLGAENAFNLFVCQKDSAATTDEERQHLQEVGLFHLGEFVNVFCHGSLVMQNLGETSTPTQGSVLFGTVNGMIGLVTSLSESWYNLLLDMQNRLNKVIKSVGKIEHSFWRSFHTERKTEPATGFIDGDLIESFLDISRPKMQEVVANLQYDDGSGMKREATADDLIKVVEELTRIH

## CC(C)(C)OC(=O)N1CCC(n2cc(CNc3cccc4c3C(=O)N(C3CCC(=O)NC3=O)C4=O)nn2)CC1 (stereo not shown) [Compound 264, tert-Butyl 4-(4-(((2-(2,6-Dioxopiperidin-3-yl)-1,3-dioxoisoindolin-4-yl)amino)methyl)-1H-1,2,3-triazol-1-yl)piperidine-1-carboxylate]
  Kd: < 10 µM
